# In patent US20060193772A1, “Drugs for treating cancer” (priority 2003, published 2006):
# Tested on: multiple myeloma cell line, LP-1 cells
# Experiment: LP-1 viable cell number (WST-1), doxorubicin and KM 1468 administration methods (Example 3)
# Assay type: cell-based
# Settings: 1 μmol/L doxorubicin, 1 μg/mL KM 1468, cells only = 100%
# Procedure: Multiple myeloma cell line, LP-1 cells (DSMZ ACC41) were seeded in a 96-well culture plate in an amount of 100 μL/well (10,000 cells). Doxorubicin and anti-IGF monoclonal antibody […] were added, and the mixture was cultured at 37° C. for 3 days. The addition of doxorubicin and KM 1468 to the medium was conducted by the following three methods.
# Method 1: Cells were cultured in 150 μL of a medium in which doxorubicin was solely added on day 1, and in 200 μL of a medium in which doxorubicin and KM 1468 were added on days 2 and 3.
# Method 2: Cells were cultured in 150 μL of a medium in which KM 1468 were solely added on day 1, and in 200 μL of a medium in which doxorubicin and KM 1468 were added on days 2 and 3.
# Method 3: Cells were cultured in a medium comprising doxorubicin and KM 1468 (an amount of the medium is 150 μL on day 1 and 200 μL each on days 2 and 3) for three days.
# In all of the foregoing methods, doxorubicin and KM 1468 were added so that the final concentrations of doxorubicin and KM 1468 became 1 μmol/L and 1 μg/mL, respectively.
# After the culturing, cell proliferation reagent WST-1 (manufactured by Roche) was added in an amount of 20 μL/well, and the mixture was cultured at 37° C. for from 2 to 3 hours. OD450 was measured with microplate reader M-SPmax 250 (manufactured by Molecular Devices). The number of viable cells after the treatment with the agent was expressed as a relative value when OD450 in which cells were solely added was regarded as 100%.
smiles,measurement,setting,value
COc1cccc2c1C(=O)c1c(O)c3c(c(O)c1C2=O)C[C@@](O)(C(=O)CO)C[C@@H]3O[C@H]1C[C@H](N)[C@H](O)[C@H](C)O1 [Doxorubicin],Relative value of cell number,"Method 1 group: doxorubicin on day 1, doxorubicin and KM 1468 on days 2 and 3",40%
same,Relative value of cell number,"Method 2 group: KM 1468 on day 1, doxorubicin and KM 1468 on days 2 and 3",57%
same,Relative value of cell number,Method 3 group: doxorubicin and KM 1468 for three days,44%
